What was measured:
[1] = tested on: NHDF cells (non-tumor human dermal fibroblasts); assay: Cytotoxicity assay (MTT) on NHDF; assay type: cell-based
Description: (§1) XO inhibitory and antioxidant assays were performed in triplicate while antiproliferative assay was conducted in quadruplicate. For each assay, at least two independent experiments were performed. An initial screening at the concentration of 30 μM for all compounds under study was performed in each in vitro study. A second screening at 5 μM was performed for compounds that originated an inhibitory potential higher than 80% for the XO activity at 30 μM. Half-maximal inhibitory concentration (IC50) studies were performed for drugs used as a reference and for the most promising bis-thiobarbiturate in XO inhibitory, antioxidant, and cytotoxicity assays.
(§2) The cytotoxic potential of the compounds being studied was evaluated by quantifying the extent of the reduction of 3-(4,5-dimethylthiazol-2-yl)-2,5-diphenyltetrazolium bromide (MTT, VWR, Radnor, PA, USA) on tumor cell lines of the colon (Caco-2) and breast (MCF-7) adenocarcinoma and non-tumor human dermal fibroblasts (NHDF). All cell lines were obtained from the American Type Culture Collection (ATCC, Manassas, VA, USA) and were maintained in 75 cm^2 culture flasks in a humidified air incubator with 5% CO2 at 37 °C. NHDF cells have grown in RPMI 1640 medium (Sigma-Aldrich, St. Louis, MO, USA) supplemented with 10% fetal bovine serum (FBS), 10 mM 4-(2-hydroxyethyl)-1-piperazineethanesulfonic acid (HEPES), 2 mM L-glutamine, 1 mM sodium pyruvate, and 1% antibiotic/antimycotic (Ab: 10,000 units/mL penicillin G, […] streptomycin and 25 μg/mL amphotericin B). MCF-7 cells were cultured in high-glucose Dulbecco’s modified Eagle medium (DMEM, Sigma-Aldrich, St. Louis, MO, USA) supplemented with 10% FBS, and 1% Ab. The Caco-2 cell line was cultured in a high glucose DMEM supplemented with 20% FBS and 1% of the antibiotic mixture (Sp: 10,000 units/mL penicillin G and […] of streptomycin). For the assay, cells were seeded in 96-well plates (2 × 10^4 cells/mL) in the culture medium. After 48 h of adherence, cells were treated with the test solutions and incubated for 72 h. […] Untreated cells were used as a negative control and 5-FU as the positive control. Following incubation, the medium was removed and replaced with a fresh incomplete culture medium (without FBS and Ab or Sp) and MTT solution [5 mg/mL in phosphate buffer saline (PBS)]. After further incubation for 4 h at 37 °C, the medium with MTT was removed, formazan crystals were dissolved in DMSO, and the absorbance was read at 570 nm. Results were expressed as the relative cell proliferation in comparison with the negative control cells.
(§3) All in vitro results are expressed as mean values ± standard deviation (SD) of at least two independent determinations. The difference between groups was analyzed for each assay by Student’s t-test. The IC50 values were calculated by sigmoidal fitting analysis considering a 95% confidence interval.

[2] = Cytotoxicity assay (MTT) on NHDF; assay type: cell-based, human; conditions: human, NHDF cells (non-tumor human dermal fibroblasts), 72 h, MTT; for viability at 72 h, 30 µM: read-out: Cytotoxicity (% cell viability at 30 µM) NHDF
Description: as §1, §2, §3

[3] = Cytotoxicity/antiproliferative assay (MTT) on Caco-2; assay type: cell-based; conditions: human, read-out: Cytotoxicity (% cell viability at 30 µM) Caco-2
Description: as §1, §2, §3

[4] = Antioxidant assay, DPPH method; conditions: 60 min
Description: as §1
Antioxidant potential was spectrophotometrically evaluated by the 2,2-diphenyl-1-picrylhydrazyl (DPPH, Sigma-Aldrich, St. Louis, MO, USA) method. All solutions and dilutions were prepared in 99.5% ethanol before each experiment. For each assay, 100 μL of the test solution and 100 μL of DPPH solution (0.2 mM) were added to each well of a 96 wells Elisa microplate. […] After 60 min of incubation in dark at rt, the capacity of each compound to reduce DPPH was followed by measuring the absorbance at 517 nm. Ethanol was used as a negative control and Trolox as the positive control. To discount the absorbance of each compound at 517 nm, a blank was performed with 100 μL of each test compound and 100 μL of ethanol. The antioxidant capacity of each sample was calculated according to the following formula:% DPPH scavenging = [1 − (ABSsample − ABSblank of sample)/ABSnegative control] × 100
as §3

[5] = Cytotoxicity/antiproliferative assay (MTT) on MCF-7; assay type: cell-based; conditions: human, MCF-7 cells (breast adenocarcinoma), read-out: Cytotoxicity (% cell viability at 30 µM) MCF-7
Description: as §1, §2, §3

Xanthine oxidase (XO) = target: T1, Xanthine oxidase (XO) (Bos taurus, UniProt P80457); assay: XO inhibitory assay (spectrophotometric quantification of uric acid formation at 295 nm); assay type: biochemical; conditions: for inhibition at 5 µM / inhibition at 30 µM: read-out: XO inhibition (%)
T1 construct: purchased Sigma-Aldrich X4875
T1 sequence (P80457 whole entry): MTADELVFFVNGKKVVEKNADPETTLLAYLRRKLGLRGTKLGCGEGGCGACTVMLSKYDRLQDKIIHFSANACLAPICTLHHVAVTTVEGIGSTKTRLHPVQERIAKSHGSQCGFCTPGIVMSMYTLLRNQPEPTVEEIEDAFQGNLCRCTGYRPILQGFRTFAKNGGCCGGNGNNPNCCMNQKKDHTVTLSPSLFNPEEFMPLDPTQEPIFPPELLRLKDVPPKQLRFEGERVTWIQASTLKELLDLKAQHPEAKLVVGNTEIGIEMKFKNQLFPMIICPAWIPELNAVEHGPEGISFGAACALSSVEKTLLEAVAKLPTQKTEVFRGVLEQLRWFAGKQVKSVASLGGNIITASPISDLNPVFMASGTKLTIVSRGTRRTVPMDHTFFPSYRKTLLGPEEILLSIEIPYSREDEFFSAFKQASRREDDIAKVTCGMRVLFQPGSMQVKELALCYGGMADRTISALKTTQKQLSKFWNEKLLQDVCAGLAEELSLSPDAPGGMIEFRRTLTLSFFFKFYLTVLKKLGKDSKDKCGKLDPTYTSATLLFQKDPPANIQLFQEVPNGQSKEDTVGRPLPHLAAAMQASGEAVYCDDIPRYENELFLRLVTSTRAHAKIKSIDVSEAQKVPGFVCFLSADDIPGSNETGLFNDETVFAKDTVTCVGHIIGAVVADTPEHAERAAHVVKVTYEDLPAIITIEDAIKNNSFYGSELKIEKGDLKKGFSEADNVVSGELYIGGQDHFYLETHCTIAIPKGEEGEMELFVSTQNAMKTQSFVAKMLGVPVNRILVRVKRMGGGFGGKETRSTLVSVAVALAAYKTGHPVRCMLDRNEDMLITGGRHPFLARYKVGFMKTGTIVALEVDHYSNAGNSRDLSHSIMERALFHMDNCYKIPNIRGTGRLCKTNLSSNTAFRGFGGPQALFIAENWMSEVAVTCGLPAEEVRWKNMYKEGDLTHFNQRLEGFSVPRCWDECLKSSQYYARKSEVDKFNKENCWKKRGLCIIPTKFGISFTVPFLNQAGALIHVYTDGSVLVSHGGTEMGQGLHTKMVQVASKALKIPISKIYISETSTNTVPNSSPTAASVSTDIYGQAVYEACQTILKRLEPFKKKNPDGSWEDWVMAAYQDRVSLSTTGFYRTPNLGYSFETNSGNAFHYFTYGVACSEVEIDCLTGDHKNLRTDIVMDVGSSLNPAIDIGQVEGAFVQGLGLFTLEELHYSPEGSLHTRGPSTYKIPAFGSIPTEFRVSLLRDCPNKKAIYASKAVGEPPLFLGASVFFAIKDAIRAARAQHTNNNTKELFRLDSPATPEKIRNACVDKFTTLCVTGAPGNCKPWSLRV
Description: as §1, with “A second screening at 5 μM was performed for compounds that originated an inhibitory potential higher than 80% for the XO activity at 30 μM.” left out
The XO inhibitory activity was evaluated by spectrophotometric quantification of uric acid formation. The 50 mM dihydrogen phosphate buffer (pH 7.4) was used to dilute all solutions. For each assay performed, 50 μL of the test solution and 50 μL of the 0.1 U/mL XO (Sigma-Aldrich X4875, St. Louis, MO, USA) solution were added in each well of an Elisa microplate (96 wells) followed by 5 min of incubation at 37 °C. […] The reaction started with the addition of 150 μL of a xanthine solution (420 μM). The absorbance was recorded at a wavelength of 295 nm every minute for 10 min. To obtain only the absorbance associated with uric acid, a solution consisting of 50 μL of the test solution, 150 μL of the xanthine solution, and 50 μL of buffer were used as blank. […] For each compound, the percentage of enzyme inhibition was calculated according to the following formula:% of XO inhibition = [1 − (ABSsample − ABSblank of sample)/ABSnegative control] × 100
as §3

| Structure (SMILES) | selectivity index for DPPH scavenging activity ([1]; NHDF cytotoxicity versus DPPH scavenging) | selectivity index for XO inhibition ([1]; NHDF cytotoxicity versus XO inhibition) | viability at 72 h, 30 µM [2] [%] | IC50 at 72 h [2] [µM] | viability at 72 h, 30 µM [3] [%] | DPPH (% scavenging at 30 µM) [4] [%] | IC50 ([4]; read-out: DPPH Scavenging IC50) [µM] | viability at 72 h, 30 µM [5] [%] | IC50 (Xanthine oxidase (XO)) [µM] | inhibition at 5 µM (Xanthine oxidase (XO)) [%] | inhibition at 30 µM (Xanthine oxidase (XO)) [%] | melting point |
| --- | --- | --- | --- | --- | --- | --- | --- | --- | --- | --- | --- | --- |
| CCn1c(O)c(C(c2ccc(Br)cc2)c2c(O)n(CC)c(=S)n(CC)c2=O)c(=O)n(CC)c1=S [Compound 11, 5,5′-((4-Bromophenyl)methylene)bis(1,3-diethyl-6-hydroxy-2-thioxo-2,3-dihydropyrimidin-4(1H)-one)] | 3.77 | 52.04 | 94.3 ± 7.84 | 93.2 ± 5.54 | 72.3 ± 9.76 | 57.25 ± 0.98 | 24.7 ± 0.88 | 92.2 ± 3.68 | 1.79 ± 0.07 | 80.9 | 95.7 | – |
| CCn1c(O)c(C(c2cc(O)ccc2[N+](=O)[O-])c2c(O)n(CC)c(=S)n(CC)c2=O)c(=O)n(CC)c1=S [Compound 16, 5,5′-((5-Hydroxy-2-nitrophenyl)methylene)bis(1,3-diethyl-6-hydroxy-2-thioxo-2,3-dihydropyrimidin-4(1H)-one)] | – | – | 60.7 ± 1.72 | – | 95.4 ± 3.3 | 31.35 ± 0.91 | – | 91.1 ± 2 | – | – | 61.4 | 167 to 169 °C |
| CCn1c(O)c(C(C(C)=Cc2ccccc2)c2c(O)n(CC)c(=S)n(CC)c2=O)c(=O)n(CC)c1=S [Compound 18, 5,5′-(2-Methyl-3-phenylprop-2-ene-1,1-diyl)bis(1,3-diethyl-6-hydroxy-2-thioxo-2,3-dihydropyrimidin-4(1H)-one)] | – | – | 86.5 ± 2.38 | – | 94.7 ± 7.19 | 31.04 ± 0.66 | – | 88.3 ± 3.29 | – | 63.4 ± 2.1 | 98.85 ± 0.82 | 145 to 146 °C |
| CCn1c(O)c(C(c2cccnc2)c2c(O)n(CC)c(=S)n(CC)c2=O)c(=O)n(CC)c1=S [Compound 19, 5,5′-(Pyridin-3-ylmethylene)bis(1,3-diethyl-6-hydroxy-2-thioxo-2,3-dihydropyrimidin-4(1H)-one)] | – | – | 81 ± 3.57 | – | 80.7 ± 13 | 3.83 ± 2.44 | – | 93.7 ± 5.68 | – | 67.3 ± 1.27 | 91.7 ± 1.87 | 253 to 254 °C |
| O=c1[nH]c(=S)[nH]c(O)c1C(c1ccc([N+](=O)[O-])cc1)c1c(O)[nH]c(=S)[nH]c1=O [Compound 7, 5,5′-((4-Nitrophenyl)methylene)bis(6-hydroxy-2-thioxo-2,3-dihydropyrimidin-4(1H)-one)] | – | – | 96.6 ± 4.32 | – | 97.1 ± 3.63 | 32.41 ± 0.26 | – | 98.7 ± 4.83 | – | – | 20.9 | 225 °C (dec.) |
| CCn1c(O)c(C(c2ccc(C)cc2)c2c(O)n(CC)c(=S)n(CC)c2=O)c(=O)n(CC)c1=S [Compound 4, 5,5′-(p-Tolymethylene)bis(1,3-diethyl-6-hydroxy-2-thioxo-2,3-dihydropyrimidin-4(1H)-one)] | – | – | 95.6 ± 7.26 | – | 98.6 ± 5.7 | 42.64 ± 0.81 | – | 90.6 ± 3.92 | – | – | 36.5 | 163 to 164 °C |
